The target of assay [1] is T1, human metabotropic glutamate receptor 1a (mGluR1a) (Homo sapiens, UniProt Q13255).
T1 construct: expressed in transfected cells
Briefly: mGluR1 inhibiting effect: intracellular calcium concentration (FLIPR) in mGluR1a-expressing CHO cells. The format is cell-based. The following applies: suppression of calcium increase by 10 μM glutamic acid, test compound added 5 min before agonist. As for the experimental part:
MGlu1 inhibiting effect was measured by using the compound of the present invention.
With the use of Lipofectamine (Gibco BRL), cDNA of human metabotropic glutamate receptor 1a (mGluR1a) were transfected to CHO cells, to obtain cells expressing mGluR1a in a stable manner. CHO cells which expressed mGluR1a were cultured in DMEM medium containing 10% dialysis fetal bovine serum, 1% proline, 100 units/ml of penicillin, 0.1 mg of streptomycin sulfate and […] glutamine.
4 μM of Fluo-3 was incubated to mGluR1a-expressing CHO cells plated with 50000 cells per 1 well of 96-well black plate (Packard, Viewplate) the day before the measurement, in a CO2 incubator for 1 hour. The cells were washed 4 times with HBSS solution containing 20 mM HEPES and 25 mM probenecid, and the intracellular calcium concentration was measured with the use of Fluorescence Imaging Plate Reader (FLIPR; Mollecular Device). The test compounds and glutamic acid were adjusted with HBSS solution containing 20 mM HEPES and 2.5 mM Probenecid. The test compounds were added 5 min before agonist stimulation, and 10 μM of glutamic acid was used as agonist.
The calcium increased with 10 μM of glutamic acid was suppressed dose-dependently.

The next assay relates to rats. Briefly: Suppression of the reduction of prepulse inhibition (PPI) by methamphetamine. The format is in vivo. To be noted: orally 30 min before 3 mg/kg methamphetamine; rat startle reaction, 120 dB pulse with prepulse. As for the experimental part:
Systems tested for prepulse inhibition which can detect specifically antipsychotic effect were also investigated. By using startle reflex measuring device (San Diego Instruments) which can dectect movement of rats, startle reaction to 120 dB-sound stimulation (pulse stimulation) combined with 63, 66 and 72 dB-sound stimulation prior to pulse stimulation (prepulse) was measured in the presence of 60 dB-background sound. The compounds of the present invention or appropriate solvents were administered to rats, and normal saline solution or 3 mg/kg of methamphetamine was administered 30 min later, to measure startle reation. Startle reactions to pulse stimulation and to stimulation with prepulse were named A and B respectively, and the prepulse inhibition (herein referred to as PPI) level was calculated with the following formula. Calculating formula of PPI:PPI(%)=100×(A−B)/A
In contrast to startle reaction toward pulse stimulation, in the presence of preminary prepulse of 72 dB, startle reaction decreased by about 50% (prepulse inhibition). When pre-treating with methamphemine, strate reaction decreased only by about 20%, and decrease of prepulse inhibition was observed. Moreover, by administrating orally the compounds having mGluR1 antagonist effect 30 min before methamphetamine administration to the present models, decrease of prepulse inhibition by methamphetamine had tendance to recover.

Another assay deals with male ICR(CD-1) mouse. The experiment in a line: Suppression of mouse spontaneous movement level increased by methamphetamine. Type of assay: in vivo. To be noted: po, 1 h, 3 mg/kg orally 30 min before 2 mg/kg methamphetamine, movement level during 60 min. As for the experimental part: With the use of male ICR(CD-1) mouse (20-40 g), movement level was measured with the use of movement level-measuring device detecting animal migration by infrared radiation sensor (Neuroscience). Compounds or appropriate solvents were administered to mice, and after administrating normal saline solution or 2 mg/kg of methamphetamine 30 min later, the movement level during 60 min from after the administration was measured. By making the difference between the movement level of the methamphetamine-administered group and that of the solvents-administered group during measuring period as 100%, the movement level of test compound-administered group was shown by inhibition % for estimation.

A value given as a limit tells only on which side of the number the result lay.

T1 sequence (Q13255 19-1194): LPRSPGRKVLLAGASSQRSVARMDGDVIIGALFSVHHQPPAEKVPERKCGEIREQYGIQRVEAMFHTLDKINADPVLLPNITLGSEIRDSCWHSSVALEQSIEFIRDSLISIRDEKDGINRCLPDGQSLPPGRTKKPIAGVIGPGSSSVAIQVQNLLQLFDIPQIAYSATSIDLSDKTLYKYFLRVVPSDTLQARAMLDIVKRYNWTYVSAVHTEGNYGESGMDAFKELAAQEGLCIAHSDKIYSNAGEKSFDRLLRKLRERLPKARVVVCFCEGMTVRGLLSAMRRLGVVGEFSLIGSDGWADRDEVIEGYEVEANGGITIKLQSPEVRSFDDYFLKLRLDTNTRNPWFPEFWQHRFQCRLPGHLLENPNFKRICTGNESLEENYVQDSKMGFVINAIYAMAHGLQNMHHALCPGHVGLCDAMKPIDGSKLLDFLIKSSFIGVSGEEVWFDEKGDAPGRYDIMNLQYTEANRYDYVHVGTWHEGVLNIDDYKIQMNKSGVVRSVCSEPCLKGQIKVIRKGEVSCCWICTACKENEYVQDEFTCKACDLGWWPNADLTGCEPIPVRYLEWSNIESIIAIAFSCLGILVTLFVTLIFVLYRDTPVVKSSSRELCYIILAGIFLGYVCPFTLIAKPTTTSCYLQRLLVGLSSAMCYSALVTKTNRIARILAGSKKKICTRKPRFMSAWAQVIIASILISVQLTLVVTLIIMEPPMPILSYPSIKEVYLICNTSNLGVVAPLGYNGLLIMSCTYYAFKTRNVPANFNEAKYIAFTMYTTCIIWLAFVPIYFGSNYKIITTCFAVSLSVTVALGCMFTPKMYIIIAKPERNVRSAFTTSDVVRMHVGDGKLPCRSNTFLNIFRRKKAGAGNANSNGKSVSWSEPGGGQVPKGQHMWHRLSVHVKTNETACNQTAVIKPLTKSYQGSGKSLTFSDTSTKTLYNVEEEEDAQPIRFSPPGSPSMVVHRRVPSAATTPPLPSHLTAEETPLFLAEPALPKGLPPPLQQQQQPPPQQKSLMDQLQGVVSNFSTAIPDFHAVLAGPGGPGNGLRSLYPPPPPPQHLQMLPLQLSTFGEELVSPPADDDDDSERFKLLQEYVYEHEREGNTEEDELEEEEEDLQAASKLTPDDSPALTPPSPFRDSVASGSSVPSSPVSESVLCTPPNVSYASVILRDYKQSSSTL

Consider `CCCN1Cc2cc(-c3nnn(-c4cccnc4F)c3C)ccc2C1=O` [Example 85, 1-(2-fluoropyridine-3-yl)-5-methyl-4-(2-propyl-1-oxo-isoindoline-5-yl)-1H-[1,2,3]triazole], for which, in assay [1], the IC50 came out at 4.4 nM. In the assay on rats, the “Inhibition effect to PPI disorder” value is listed as “yes”. The same molecule yielded an inhibition in vivo at 3 mg/kg in the assay on male ICR(CD-1) mouse above 50%.

On to `Cc1c(-c2ccc3c(c2)CN(C2CC2)C3=O)nnn1-c1cccnc1F` [Example 49, 4-(2-cyclopropyl-1-oxo-isoindoline-5-yl)-1-(2-fluoropyridine-3-yl)-5-methyl-1H-[1,2,3]triazole], for which the IC50 in assay [1] was 3.2 nM. In the assay with rats, the “Inhibition effect to PPI disorder” value is “yes”. In the assay with male ICR(CD-1) mouse, this molecule showed an inhibition in vivo at 3 mg/kg above 50%.

Take `Cc1c(-c2ccc3c(c2)CC2(CC2)C3=O)nnn1-c1cccnc1F` [Example 34, 1-(2-fluoropyridine-3-yl)-5-methyl-4-(1-oxoindane-2-spiro-1′-cyclopropyl-5-yl)-1H-[1,2,3]triazole]: the concentration for half-maximal inhibition (IC50) in assay [1] stood at 2.3 nM. The “Inhibition effect to PPI disorder” value in the assay with rats is “yes”. The molecule further registered an inhibition in vivo at 3 mg/kg in the assay with male ICR(CD-1) mouse above 50%.

Take `Cc1c(-c2ccc3c(c2)CN(CC(F)F)C3=O)nnn1-c1ccc(F)cc1` [Example 151, 4-(2-(2,2-difluoroethyl)-1-oxo-isoindoline-5-yl)-1-(4-fluorophenyl)-5-methyl-1H-[1,2,3]triazole]: the IC50 in assay [1] worked out at 2.5 nM. In addition, the “Inhibition effect to PPI disorder” value with rats is “yes”. Moreover, in the assay on male ICR(CD-1) mouse, the inhibition in vivo at 3 mg/kg is above 50%.

For the molecule `Cc1c(-c2ccc3c(c2)CN(C(C)C)C3=O)nnn1-c1ccc(F)cc1F` [Example 119, 4-(2-isopropyl-1-oxo-isoindoline-5-yl)-1-(2,4-difluorophenyl)-5-methyl-1H-[1,2,3]triazole], the IC50 in assay [1] turned out to be 4.3 nM. For the same molecule, in the assay on rats, the “Inhibition effect to PPI disorder” value is “yes”. The same molecule displayed an inhibition in vivo at 3 mg/kg in the assay on male ICR(CD-1) mouse above 50%.

Take `Cc1c(-c2ccc3c(c2)CN(CC(C)(C)O)C3=O)nnn1-c1ccc(F)cc1` [Example 181, 4-(2-(2-hydroxy-2-methyl-propyl)-1-oxo-isoindoline-5-yl)-1-(4-fluorophenyl)-5-methyl-1H-[1,2,3]triazole]: the IC50 in assay [1] worked out at 18 nM. The “Inhibition effect to PPI disorder” value in the assay on rats is “yes”. This molecule displayed an inhibition in vivo at 3 mg/kg with male ICR(CD-1) mouse above 50%.

For `Cc1c(-c2ccc3nc(CC(C)(C)O)ccc3c2)nnn1-c1ccc(F)cc1` [Example 227], in assay [1], the 50% inhibitory concentration (IC50) was found to be 2.4 nM. In addition, in the assay with rats, the “Inhibition effect to PPI disorder” value is given as “yes”. In the assay with male ICR(CD-1) mouse, this molecule had an inhibition in vivo at 3 mg/kg above 50%.

On to `Cc1c(-c2ccc3c(c2)CN(C2CC2)C3=O)nnn1-c1ccccc1F` [Example 87, 4-(2-cyclopropyl-1-oxo-isoindoline-5-yl)-1-(2-fluorobenzene-3-yl)-5-methyl-1H-[1,2,3]triazole], for which, in assay [1], the IC50 was found to be 4.3 nM. The “Inhibition effect to PPI disorder” value with rats is listed as “yes”. The inhibition in vivo at 3 mg/kg in the assay on male ICR(CD-1) mouse is above 50%.

Take `Cc1c(-c2ccc3c(c2)CN(C(C)C)C3=O)nnn1-c1cccnc1F` [Example 36, 4-(2-isopropyl-1-oxo-isoindoline-5-yl)-1-(2-fluoropyridine-3-yl)-5-methyl-1H-[1,2,3]triazole]: in assay [1], the IC50 stood at 6.5 nM. In addition, the “Inhibition effect to PPI disorder” value with rats is listed as “yes”. The same molecule gave an inhibition in vivo at 3 mg/kg in the assay on male ICR(CD-1) mouse above 50%.

For `Cc1c(-c2ccc3c(=O)n(CC(C)(C)O)ccc3c2)nnn1-c1ccc(F)cc1` [Example 204, 4-(2-(2-hydroxy-2-methyl-propyl)-1-oxo-isoquinoline-6-yl)-1-(4-fluorophenyl)-5-methyl-1H-[1,2,3]triazole], the IC50 in assay [1] is 3.4 nM. Moreover, in the assay on rats, the “Inhibition effect to PPI disorder” value was “yes”. Moreover, the inhibition in vivo at 3 mg/kg in the assay on male ICR(CD-1) mouse was above 50%.

One may read the IC50 as the concentration at which inhibition is half-maximal. By inhibition in vivo is commonly meant the relative decrease from the control value, in per cent. Higher therefore signals strong suppression.

The record behind these values is US7902369B2, “Diaryl-substituted five-membered heterocycle derivative” (Banyu Pharmaceutical Co., Ltd., priority 2004, dated 2011).
